From PubChem BioAssay AID1963973 (Molecular Pharmacology Branch, DTP, NCI, 2024)

Test system: 883617-216-R-J1-PDC tumor spheroids, viability
Assay: Anticancer human tumor 883617-216-R-J1-PDC patient-derived bladder carcinoma cell line growth inhibition [PI3K]
Conditions: spheroids with HUVEC and MSC; for IC50: curve of first compound; for viability, T/C: stronger effect = lower value
Source text: Combinatorial screen of targeted agents with the PI3K inhibitors inavolisib, alpelisib, duvelisib, and copanlisib in multi-cell type tumor spheroids
A high-throughput screen of multi-cell type tumor spheroids was designed to identify active combinations of targeted small molecules and PI3K pathway inhibitors. Complex spheroids include a stromal component modeled by human endothelial cells (HUVEC) and fibroblasts modeled by human mesenchymal stem cells (MSCs). The concentration ranges selected for each drug and investigational agent were based upon clinically achievable concentrations if the clinical Cmax of the agent was known.
Compounds. The drugs and investigational agents: inavolisib (NSC800729), alpelisib (NSC765974), duvelisib (NSC772469), copanlisib (NSC816437), ipatasertib (NSC767898), afuresertib (NSC778305), talazoparib (NSC767125), sapanisertib (NSC764658), selumetinib (NSC741078), tovorafenib (DAY101, NSC766906), vemurafenib (NSC761431), ravoxertinib (NSC781343), sotorasib (NSC818433), MRTX1133 (NSC 836407), abemaciclib (NSC 768073), palbociclib (NSC758247), venetoclax (NSC 766270), SY5609 (NSC837396), enzalutamide (NSC755605), and darolutamide (NSC825331), were obtained from the National Cancer Institute (NCI) Developmental Therapeutics Program Chemical Repository. The FDA-approved anticancer drug set is available from the NCI Developmental Therapeutics Program. […] The stock solutions were prepared in dimethyl sulfoxide (DMSO, Sigma-Aldrich, St. Louis, MO, cat. D2650) at 800-fold the tested concentration and stored at -70 degrees C prior to their use. All drugs and investigational agents were tested over a range starting from a high concentration at or near the clinical Cmax and decreasing in half-log increments. If the clinical Cmax for an agent had not been determined, the highest concentration tested was 10 microM.
Cell Culture. All cells were maintained in an incubator at 37 degrees C and 5% CO2 with 95% humidity. The PDC lines were cultured according to standard operating procedures established by the NCI PDMR (https://pdmr.cancer.gov/sops/default.htm). All PDCs were thawed and cultured in Matrigel-coated flasks prepared with a working solution of 1X Ham's F-12 nutrient mix, without supplementation (Invitrogen, Waltham, MA, cat. 11765054), 100 U/mL penicillin-streptomycin (Invitrogen, cat. 15140122), and 2.5% Matrigel (Corning Inc., Corning, NY, cat. 354248) for the first three passages. The 354836-022-R-J1-PDC, 475296-252-R-J1-PDC, and 997726-040-R-J2-PDC lines were cultured in 6A media, which includes advanced DMEM/F-12 (Thermo Fisher Scientific, cat. 12634028), 10 mM HEPES (Thermo Fisher Scientific, cat. 15630080), 1X GlutaMAX supplement (Thermo Fisher Scientific, cat. 35050061), 0.1 mg/mL primocin (InvivoGen, San Diego, CA, cat. ant-pm-2), 10% defined fetal bovine serum, heat inactivated (HyClone Laboratories Inc., Logan, UT, cat. SH30070.03HI), 50% L-WRN conditioned media (ATCC, cat. CRL-3276), 1.25 mM N-Acetyl-L-cysteine (Sigma-Aldrich, cat. A9165), 10 mM nicotinamide (Sigma-Aldrich, cat. N0636), 1X B-27 supplement (Thermo Fisher Scientific, cat. 17504044), 1X N-2 supplement (Thermo Fisher Scientific, cat. 17502048), and 10 microM Y-27632 dihydrochloride (Tocris Bioscience, Bristol, United Kingdom, cat. 1254). The 624824-186-R-J2-PDC line was cultured in 6C/Colon 1B media, which includes all 6A media components plus 50 ng/mL human EGF recombinant protein (Thermo Fisher Scientific, cat. PHG0311). […]

[1] = second compound 0.00316 µM, first compound 0.0316 µM
[2] = second compound 0.00316 µM, first compound 0.1 µM
[3] = second compound 0.01 µM, first compound 0.0316 µM
[4] = second compound 0.01 µM, first compound 0.1 µM
[5] = second compound 0.0316 µM, first compound 0.0316 µM
[6] = second compound 0.0316 µM, first compound 0.1 µM
[7] = second compound 0.1 µM, first compound 0.0316 µM
[8] = second compound 0.1 µM, first compound 0.1 µM
[9] = second compound 0.316 µM, first compound 0.0316 µM
[10] = second compound 0.316 µM, first compound 0.1 µM
[11] = second compound 1 µM, first compound 0.0316 µM
[12] = second compound 1 µM, first compound 0.1 µM
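Also: spheroids exposed to agents for 7 days before the viability read.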

**Q.** Which IC50 (second compound 0.00316 µM) does the source give for `CC(=O)c1c(C)c2cnc(Nc3ccc(N4CCNCC4)cn3)nc2n(C2CCCC2)c1=O` + CC(Nc1ccc2c(c1)OCCn1cc(N3C(=O)OCC3C(F)F)nc1-2)C(N)=O here?
**A.** Its IC50 is 74.3 nM.

**Q.** What about the IC50 (second compound 0.01 µM) of the same molecule?
**A.** Its IC50 is 54.3 nM.

**Q.** What about the IC50 (second compound 0.0316 µM) of the same molecule?
**A.** The IC50 was 35.9 nM.

**Q.** What about the IC50 (second compound 0.1 µM) of the same molecule?
**A.** The IC50 was 0.515 nM.

**Q.** And the IC50 (second compound 0.316 µM)?
**A.** The IC50 was < 0.316 nM.

**Q.** What about the IC50 (second compound 1 µM) of the same molecule?
**A.** The IC50 was < 0.316 nM.

**Q.** What about the viability, T/C (second compound 0.00316 µM, first compound 0.000316 µM) of the same molecule?
**A.** Its viability, T/C is 99.1%.

**Q.** What about the viability, T/C (second compound 0.00316 µM, first compound 0.001 µM) of the same molecule?
**A.** Its viability, T/C is 97.3%.

**Q.** And the viability, T/C (second compound 0.00316 µM, first compound 0.00316 µM)?
**A.** The viability, T/C was 86.7%.

**Q.** And the viability, T/C (second compound 0.00316 µM, first compound 0.01 µM)?
**A.** Its viability, T/C is 84.1%.

**Q.** What about the viability, T/C [1] of the same molecule?
**A.** The viability, T/C was 67%.

**Q.** And the viability, T/C [2]?
**A.** Its viability, T/C is 43.6%.

**Q.** And the viability, T/C (second compound 0.01 µM, first compound 0.000316 µM)?
**A.** The viability, T/C was 78.1%.

**Q.** And the viability, T/C (second compound 0.01 µM, first compound 0.001 µM)?
**A.** The viability, T/C was 85.7%.

**Q.** And the viability, T/C (second compound 0.01 µM, first compound 0.00316 µM)?
**A.** Its viability, T/C is 82%.

**Q.** What about the viability, T/C (second compound 0.01 µM, first compound 0.01 µM) of the same molecule?
**A.** Its viability, T/C is 78.7%.

**Q.** What about the viability, T/C [3] of the same molecule?
**A.** Its viability, T/C is 55.9%.

**Q.** And the viability, T/C [4]?
**A.** Its viability, T/C is 43.4%.

**Q.** What about the viability, T/C (second compound 0.0316 µM, first compound 0.000316 µM) of the same molecule?
**A.** Its viability, T/C is 74.2%.

**Q.** What about the viability, T/C (second compound 0.0316 µM, first compound 0.001 µM) of the same molecule?
**A.** Its viability, T/C is 78.9%.

**Q.** And the viability, T/C (second compound 0.0316 µM, first compound 0.00316 µM)?
**A.** Its viability, T/C is 67.5%.

**Q.** And the viability, T/C (second compound 0.0316 µM, first compound 0.01 µM)?
**A.** The viability, T/C was 69.8%.

**Q.** And the viability, T/C [5]?
**A.** Its viability, T/C is 51.2%.

**Q.** And the viability, T/C [6]?
**A.** Its viability, T/C is 34.9%.

**Q.** What about the viability, T/C (second compound 0.1 µM, first compound 0.000316 µM) of the same molecule?
**A.** The viability, T/C was 52%.

**Q.** And the viability, T/C (second compound 0.1 µM, first compound 0.001 µM)?
**A.** The viability, T/C was 47.8%.

**Q.** What about the viability, T/C (second compound 0.1 µM, first compound 0.00316 µM) of the same molecule?
**A.** The viability, T/C was 42.8%.

**Q.** What about the viability, T/C (second compound 0.1 µM, first compound 0.01 µM) of the same molecule?
**A.** Its viability, T/C is 42.6%.

**Q.** And the viability, T/C [7]?
**A.** Its viability, T/C is 32.2%.

**Q.** What about the viability, T/C [8] of the same molecule?
**A.** Its viability, T/C is 26.1%.

**Q.** And the viability, T/C (second compound 0.316 µM, first compound 0.000316 µM)?
**A.** The viability, T/C was 33.9%.

**Q.** What about the viability, T/C (second compound 0.316 µM, first compound 0.001 µM) of the same molecule?
**A.** Its viability, T/C is 26.1%.

**Q.** And the viability, T/C (second compound 0.316 µM, first compound 0.00316 µM)?
**A.** The viability, T/C was 26.7%.

**Q.** What about the viability, T/C (second compound 0.316 µM, first compound 0.01 µM) of the same molecule?
**A.** Its viability, T/C is 26.3%.

**Q.** What about the viability, T/C [9] of the same molecule?
**A.** Its viability, T/C is 18.3%.

**Q.** What about the viability, T/C [10] of the same molecule?
**A.** Its viability, T/C is 15.8%.

**Q.** And the viability, T/C (second compound 1 µM, first compound 0.000316 µM)?
**A.** Its viability, T/C is 18.6%.

**Q.** And the viability, T/C (second compound 1 µM, first compound 0.001 µM)?
**A.** The viability, T/C was 15.8%.

**Q.** What about the viability, T/C (second compound 1 µM, first compound 0.00316 µM) of the same molecule?
**A.** Its viability, T/C is 14.3%.

**Q.** And the viability, T/C (second compound 1 µM, first compound 0.01 µM)?
**A.** Its viability, T/C is 14.8%.

**Q.** What about the viability, T/C [11] of the same molecule?
**A.** The viability, T/C was 15.5%.

**Q.** And the viability, T/C [12]?
**A.** Its viability, T/C is 10.1%.

**Q.** Which results are given for `CNC(=O)c1ccc(N2C(=S)N(c3ccc(C#N)c(C(F)(F)F)c3)C(=O)C2(C)C)cc1F` + CC(Nc1ccc2c(c1)OCCn1cc(N3C(=O)OCC3C(F)F)nc1-2)C(N)=O?
**A.** IC50 (second compound 0.00316 µM): > 10000 nM; IC50 (second compound 0.01 µM): > 10000 nM; IC50 (second compound 0.0316 µM): > 10000 nM; IC50 (second compound 0.1 µM): < 31.6 nM; IC50 (second compound 0.316 µM): < 31.6 nM; IC50 (second compound 1 µM): < 31.6 nM; viability, T/C [1]: 94.3%; viability, T/C [2]: 78.7%; viability, T/C (second compound 0.00316 µM, first compound 0.316 µM): 97.5%; viability, T/C (second compound 0.00316 µM, first compound 1 µM): 104%; viability, T/C (second compound 0.00316 µM, first compound 3.16 µM): 82.2%; viability, T/C (second compound 0.00316 µM, first compound 10 µM): 62.4%; viability, T/C [3]: 90.3%; viability, T/C [4]: 74.3%; viability, T/C (second compound 0.01 µM, first compound 0.316 µM): 82.6%; viability, T/C (second compound 0.01 µM, first compound 1 µM): 97.5%; viability, T/C (second compound 0.01 µM, first compound 3.16 µM): 82.3%; viability, T/C (second compound 0.01 µM, first compound 10 µM): 63.4%; viability, T/C [5]: 61.1%; viability, T/C [6]: 62.5%; viability, T/C (second compound 0.0316 µM, first compound 0.316 µM): 59%; viability, T/C (second compound 0.0316 µM, first compound 1 µM): 75.8%; viability, T/C (second compound 0.0316 µM, first compound 3.16 µM): 79.8%; viability, T/C (second compound 0.0316 µM, first compound 10 µM): 44.8%; viability, T/C [7]: 35.2%; viability, T/C [8]: 39.1%; viability, T/C (second compound 0.1 µM, first compound 0.316 µM): 44.9%; viability, T/C (second compound 0.1 µM, first compound 1 µM): 41.9%; viability, T/C (second compound 0.1 µM, first compound 3.16 µM): 42.5%; viability, T/C (second compound 0.1 µM, first compound 10 µM): 27.9%; viability, T/C [9]: 20.5%; viability, T/C [10]: 23.9%; viability, T/C (second compound 0.316 µM, first compound 0.316 µM): 21.2%; viability, T/C (second compound 0.316 µM, first compound 1 µM): 26.2%; viability, T/C (second compound 0.316 µM, first compound 3.16 µM): 48.8%; viability, T/C (second compound 0.316 µM, first compound 10 µM): 19.3%; viability, T/C [11]: 16.9%; viability, T/C [12]: 11.8%; viability, T/C (second compound 1 µM, first compound 0.316 µM): 16.3%; viability, T/C (second compound 1 µM, first compound 1 µM): 19.5%; viability, T/C (second compound 1 µM, first compound 3.16 µM): 17.2%; viability, T/C (second compound 1 µM, first compound 10 µM): 12.3%
